Test results reported in publication PMC9604400, “Synthesis, Anticancer and Antitubercular Properties of New Chalcones and Their Nitrogen-Containing Five-Membered Heterocyclic Hybrids Bearing Sulfonamide Moiety” (International Journal of Molecular Sciences, 2022).

How the values were obtained:
UO-31 = experiment: NCI-60 screen (SRB), renal cancer; conditions: Homo sapiens
NCI-H522 = experiment: NCI-60 screen (SRB), non-small cell lung cancer; conditions: Homo sapiens
NCI-H226 = experiment: NCI-60 screen (SRB), non-small cell lung cancer; conditions: Homo sapiens
breast cancer cell lines = experiment: NCI-60 screen (SRB), breast cancer panel; assay type: cell-based; conditions: Homo sapiens, single dose 10 μM, read-out: GI (growth inhibition), range over panel
RPMI-8226 = experiment: NCI-60 screen (SRB), leukemia; conditions: Homo sapiens
HT29 = experiment: NCI-60 screen (SRB), colon cancer; conditions: Homo sapiens
PC-3 = experiment: NCI-60 screen (SRB), prostate cancer; conditions: Homo sapiens
SF-539 = experiment: NCI-60 screen (SRB), CNS cancer; conditions: Homo sapiens
MDA-MB-468 = experiment: NCI-60 screen (SRB), breast cancer
ACHN = experiment: NCI-60 screen (SRB), renal cancer; conditions: Homo sapiens
BT-549 = experiment: NCI-60 screen (SRB), breast cancer; conditions: Homo sapiens
UACC-62 = experiment: NCI-60 screen (SRB), melanoma; conditions: Homo sapiens
T-47D = experiment: NCI-60 screen (SRB), breast cancer; conditions: Homo sapiens, T47D
MALME-3M = experiment: NCI-60 screen (SRB), melanoma; conditions: Homo sapiens
SR = experiment: NCI-60 screen (SRB), leukemia; conditions: Homo sapiens
colon cancer cell lines = experiment: NCI-60 screen (SRB), colon cancer panel; assay type: cell-based; conditions: Homo sapiens, single dose 10 μM, read-out: GI (growth inhibition), range over panel
OVCAR-4 = experiment: NCI-60 screen (SRB), ovarian cancer; conditions: Homo sapiens
OVCAR-3 = experiment: NCI-60 screen (SRB), ovarian cancer; conditions: Homo sapiens
786-0 = experiment: NCI-60 screen (SRB), renal cancer; conditions: Homo sapiens
HCC-2998 = experiment: NCI-60 screen (SRB), colon cancer; conditions: Homo sapiens
A549/ATCC = experiment: NCI-60 screen (SRB), non-small cell lung cancer; conditions: Homo sapiens
NCI-H460 = experiment: NCI-60 screen (SRB), non-small cell lung cancer; conditions: Homo sapiens
M14 = experiment: NCI-60 screen (SRB), melanoma; conditions: Homo sapiens
OVCAR-8 = experiment: NCI-60 screen (SRB), ovarian cancer; conditions: Homo sapiens
RXF 393 = experiment: NCI-60 screen (SRB), renal cancer
SK-MEL-5 = experiment: NCI-60 screen (SRB), melanoma; conditions: Homo sapiens
SN12C = experiment: NCI-60 screen (SRB), renal cancer; conditions: Homo sapiens
IGROV1 = experiment: NCI-60 screen (SRB), ovarian cancer; conditions: Homo sapiens
SF-268 = experiment: NCI-60 screen (SRB), CNS cancer; conditions: Homo sapiens
SK-MEL-2 = experiment: NCI-60 screen (SRB), melanoma; conditions: Homo sapiens
LOX IMVI = experiment: NCI-60 screen (SRB), melanoma; conditions: Homo sapiens
MOLT-4 = experiment: NCI-60 screen (SRB), leukemia; conditions: Homo sapiens
K-562 = experiment: NCI-60 screen (SRB), leukemia; conditions: Homo sapiens

Structure (SMILES): COc1cc(OC)c(S(N)(=O)=O)cc1C(=O)C=Cc1ccccc1 [Compound 17a, 5-Cinnamoyl-2,4-dimethoxybenzenesulfonamide]
- IC50 (UO-31; UO-31): 4.76 µM
- CC50 (UO-31; UO-31, read-out: LC50): 43.5 µM
- IC50 (NCI-H522; NCI-H522): 6.56 µM
- CC50 (NCI-H522; NCI-H522, read-out: LC50): 49.7 µM
- IC50 (NCI-H226; NCI-H226): 10 µM
- CC50 (NCI-H226; NCI-H226, read-out: LC50): 69.2 µM
- inhibition at 10 µM (breast cancer cell lines): 73.5 to 100%
- IC50 (RPMI-8226; RPMI-8226): 2.98 µM
- CC50 (RPMI-8226; RPMI-8226, read-out: LC50): > 100 µM
- IC50 (HT29; HT-29): 4.02 µM
- CC50 (HT29; HT-29, read-out: LC50): 42.5 µM
- IC50 (PC-3; PC-3): 5.95 µM
- CC50 (PC-3; PC-3, read-out: LC50): 50.4 µM
- IC50 (SF-539; SF-539): 2.44 µM
- CC50 (SF-539; SF-539, read-out: LC50): 30.1 µM
- IC50 (MDA-MB-468; Homo sapiens, MDA-MB-468): 1.2 µM
- CC50 (MDA-MB-468; Homo sapiens, MDA-MB-468, read-out: LC50): 43.9 µM
- lethality (MDA-MB-468; MDA-MB-468, single dose 10 μM): 43.37%
- IC50 (ACHN): 6.99 µM
- CC50 (ACHN; read-out: LC50): 44.8 µM
- IC50 (BT-549; BT-549): 2.65 µM
- CC50 (BT-549; BT-549, read-out: LC50): 40.6 µM
- IC50 (UACC-62; UACC-62): 12.2 µM
- CC50 (UACC-62; UACC-62, read-out: LC50): 59.4 µM
- IC50 (T-47D): 2.09 µM
- CC50 (T-47D; read-out: LC50): 51.6 µM
- IC50 (MALME-3M): 13.9 µM
- CC50 (MALME-3M; read-out: LC50): 61.9 µM
- IC50 (SR): 1.73 µM
- CC50 (SR; read-out: LC50): > 100 µM
- inhibition at 10 µM (colon cancer cell lines): 72.5 to 96.2%
- IC50 (OVCAR-4; OVCAR-4): 11.8 µM
- CC50 (OVCAR-4; OVCAR-4, read-out: LC50): 55.9 µM
- IC50 (OVCAR-3; OVCAR-3): 2.71 µM
- CC50 (OVCAR-3; OVCAR-3, read-out: LC50): 38.3 µM
- IC50 (786-0; 786-0): 4.82 µM
- CC50 (786-0; 786-0, read-out: LC50): 63.2 µM
- IC50 (HCC-2998; HCC 2998): 12.5 µM
- CC50 (HCC-2998; HCC 2998, read-out: LC50): 54.7 µM
- IC50 (A549/ATCC; A549): 10.5 µM
- CC50 (A549/ATCC; A549, read-out: LC50): 49 µM
- IC50 (NCI-H460; NCI-H460): 1.95 µM
- CC50 (NCI-H460; NCI-H460, read-out: LC50): 51.2 µM
- IC50 (M14; M14): 7.51 µM
- CC50 (M14; M14, read-out: LC50): 60.5 µM
- IC50 (OVCAR-8; OVCAR-8): 11.3 µM
- CC50 (OVCAR-8; OVCAR-8, read-out: LC50): 51.3 µM
- IC50 (RXF 393; Homo sapiens, RXF 393): 1.9 µM
- CC50 (RXF 393; Homo sapiens, RXF 393, read-out: LC50): 30 µM
- lethality (RXF 393; RXF 393, single dose 10 μM): 29.73%
- IC50 (SK-MEL-5; SK-MEL-5): 17.6 µM
- CC50 (SK-MEL-5; SK-MEL-5, read-out: LC50): 59.7 µM
- IC50 (SN12C): 3.49 µM
- CC50 (SN12C; read-out: LC50): 43.8 µM
- IC50 (IGROV1; IGROV-1): 9.74 µM
- CC50 (IGROV1; IGROV-1, read-out: LC50): 77 µM
- IC50 (SF-268; SF-268): 5.88 µM
- CC50 (SF-268; SF-268, read-out: LC50): 62.7 µM
- IC50 (SK-MEL-2; SK-MEL-2): 12.6 µM
- CC50 (SK-MEL-2; SK-MEL-2, read-out: LC50): 55.9 µM
- IC50 (LOX IMVI): 0.34 µM
- CC50 (LOX IMVI; read-out: LC50): 41.4 µM
- IC50 (MOLT-4; MOLT-4): 10.1 µM
- CC50 (MOLT-4; MOLT-4, read-out: LC50): > 100 µM
- IC50 (K-562; K562): 1.5 µM
- CC50 (K-562; K562, read-out: LC50): > 100 µM
